Among the data in US8741923B2, “Oxadiazole fused heterocyclic derivatives useful for the treatment of multiple sclerosis” (Merck Serono SA, priority 2008, dated 2014) are EC50 and Ki values, retold here.

Test [1] concerns the target T1, S1P1 (Homo sapiens (Human), UniProt P21453). Put plainly: 35S-GTPγS binding, S1P1 membranes. The note with it: membranes from CHO cells expressing S1P1. It counts as biochemical. The method, then:
Receptor binding assay: Membranes were prepared from CHO cells expressing S1P1 or S1P3 for use in ligand and 35S-GTPγS binding studies. Cells were suspended in 50 mM TRIS, pH 7.4, 2 mM EDTA, 250 mM Sucrose (buffer A) and 1× Complete protease inhibitor cocktail (Roche), and disrupted at 4° C. by N2 decompression using a cell disruption bomb (Parr Instrument). Following centrifugation at 1000 RPM for 10 min at 4° C., the supernatant was suspended in buffer A and centrifuged again at 19000 RPM for 60 min at 4° C. The pellet was then suspended in 10 mM HEPES, pH 7.4, 1 mM EDTA, 250 mM Sucrose (Buffer B), and 1× Complete EDTA-free protease inhibitor cocktail and homogenized using a potter. Membranes were flash frozen in liquid N2 and stored at −80° C. [33P]sphingosine 1-phosphate (3000 Ci/mmol; American Radiolabeled Chemicals, Inc.) was added to test compounds in DMSO. […] Specific binding was calculated by subtracting remaining radioactivity in the presence of 1000-fold excess of unlabeled S1P. Binding data were analyzed using the GraphPad Prism program.
Measurements of 35S-GTPγS Binding:
After 60 min incubation at 30° C. on a shaker, plates were centrifuged for 10 min at 2000 RPM. […] Triplicate samples were averaged and expressed as % response relative to S1P activation in absence of compound (n=2).
In general terms: GTPγS is a poorly hydrolysed GTP analogue; its binding reports G protein activation.

Test [2] has as its target T1, S1P1. Put plainly: Receptor binding assay ([33P]sphingosine 1-phosphate, SPA) on S1P1 membranes. The note with it: membranes from CHO cells expressing S1P1. The protocol:
Receptor binding assay: Membranes were prepared from CHO cells expressing S1P1 or S1P3 for use in ligand and 35S-GTPγS binding studies. Cells were suspended in 50 mM TRIS, pH 7.4, 2 mM EDTA, 250 mM Sucrose (buffer A) and 1× Complete protease inhibitor cocktail (Roche), and disrupted at 4° C. by N2 decompression using a cell disruption bomb (Parr Instrument). Following centrifugation at 1000 RPM for 10 min at 4° C., the supernatant was suspended in buffer A and centrifuged again at 19000 RPM for 60 min at 4° C. The pellet was then suspended in 10 mM HEPES, pH 7.4, 1 mM EDTA, 250 mM Sucrose (Buffer B), and 1× Complete EDTA-free protease inhibitor cocktail and homogenized using a potter. Membranes were flash frozen in liquid N2 and stored at −80° C. [33P]sphingosine 1-phosphate (3000 Ci/mmol; American Radiolabeled Chemicals, Inc.) was added to test compounds in DMSO. Membranes and WGA SPA beads (GE Healthcare) were added to give a final volume of 100 μl in 96-well plates with assay concentrations of […] [33P]sphingosine 1-phosphate (respectively for S1P1 or S1P3), 50 mM HEPES, pH 7.5, 5 mM MgCl2, 100 mM NaCl, 0.4% fatty acid-free BSA, 1-5 μg/well of proteins and 100 μg/well of WGA SPA beads. Binding was performed for 60 min at RT on a shaker and bound radioactivity was measured on a PerkinElmer 1450 MicroBeta counter. Specific binding was calculated by subtracting remaining radioactivity in the presence of 1000-fold excess of unlabeled S1P. Binding data were analyzed using the GraphPad Prism program.

T1 sequence (P21453 whole entry, species assumed): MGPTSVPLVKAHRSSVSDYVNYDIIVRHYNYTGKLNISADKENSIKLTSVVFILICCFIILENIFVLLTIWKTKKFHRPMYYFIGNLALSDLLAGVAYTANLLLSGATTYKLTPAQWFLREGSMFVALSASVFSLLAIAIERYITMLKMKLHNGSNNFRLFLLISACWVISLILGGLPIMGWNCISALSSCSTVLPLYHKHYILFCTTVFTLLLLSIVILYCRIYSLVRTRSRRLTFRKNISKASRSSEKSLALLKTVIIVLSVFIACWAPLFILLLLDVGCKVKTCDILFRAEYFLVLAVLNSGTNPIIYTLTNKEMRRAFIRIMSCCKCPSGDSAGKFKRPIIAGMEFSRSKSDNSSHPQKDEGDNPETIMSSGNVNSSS

As usually defined, the EC50 is the midpoint of the concentration-response curve. With `CC1CCCCN1c1ccc(-c2nc(-c3ccc4[nH]cnc4c3)no2)cc1C#N` (centres unmarked) [Compound 2, 5-[3-(1H-benzimidazol-5-yl)-1,2,4-oxadiazol-5-yl]-2-(2-methylpiperidin-1-yl)benzonitrile], the concentration for a half-maximal effect (EC50) at S1P1 [1] came out at 10 nM.

`COCc1cc(-c2nc(-c3ccc4[nH]cnc4c3)no2)ccc1N1CCCCC1C` (centres unmarked) [Compound 6, 5-{5-[3-(methoxymethyl)-4-(2-methylpiperidin-1-yl)phenyl]-1,2,4-oxadiazol-3-yl}-1H-benzimidazole] registered an EC50 on S1P1 [1] of 2.5 nM. This EC50 is about 4-fold lower than that of the compound before.

On to `CC1CCCCN1c1ccc(-c2nc(-c3cc(F)c4[nH]cnc4c3)no2)cc1C(F)(F)F` (centres unmarked) [Compound 7, 7-fluoro-5-{5-[4-(2-methylpiperidin-1-yl)-3-(trifluoromethyl)phenyl]-1,2,4-oxadiazol-3-yl}-1H-benzimidazole], for which, at S1P1 [1], the concentration giving a half-maximal response (EC50) was determined as 14 nM.

For `Cc1cc(-c2noc(-c3ccc(N4CCCCC4C)c(C(F)(F)F)c3)n2)cc2nc[nH]c12` (centres unmarked) [Compound 8, 7-methyl-5-{5-[4-(2-methylpiperidin-1-yl)-3-(trifluoromethyl)phenyl]-1,2,4-oxadiazol-3-yl}-1H-benzimidazole], the EC50 at S1P1 [1] worked out at 7 nM. This EC50 lies about 2-fold lower than the previous one.

`COCc1cc(-c2nc(-c3cc(F)c4[nH]cnc4c3)no2)ccc1-c1ccccc1C` [Compound 9, 7-fluoro-5-{5-[2-(methoxymethyl)-2′-methylbiphenyl-4-yl]-1,2,4-oxadiazol-3-yl}-1H-benzimidazole] came in with an EC50 on S1P1 [1] of 0.5 nM.

In turn, `Cc1cc(-c2nc(-c3ccc4c(c3)CN(C(=O)OC(C)(C)C)CC4)no2)cnc1N1CCCC1C` (centres unmarked) [Compound 13, tert-butyl 7-{5-[5-methyl-6-(2-methylpyrrolidin-1-yl)pyridin-3-yl]-1,2,4-oxadiazol-3-yl}-3,4-dihydroisoquinoline-2(1H)-carboxylate] returned an EC50 on S1P1 [1] greater than 20000 nM.

On S1P1 [1], `Cc1cc(-c2nc(-c3ccc4c(c3)CNCC4)no2)cnc1N1CCCC1C` (centres unmarked) [Compound 14, 7-{5-[5-methyl-6-(2-methylpyrrolidin-1-yl)pyridin-3-yl]-1,2,4-oxadiazol-3-yl}-1,2,3,4-tetrahydroisoquinoline] came in with an EC50 of 64 nM. This lies in the double-digit nanomolar range.

For the compound `Cc1ccccc1-c1ccc(-c2nc(-c3ccc4c(ccn4C)c3)no2)cc1C` [Compound 17, 5-[5-(2,2′-dimethylbiphenyl-4-yl)-1,2,4-oxadiazol-3-yl]-1-methyl-1H-indole], the EC50 at S1P1 [1] was 1330 nM.

As to `Cc1ccccc1-c1ccc(-c2nc(-c3ccc4c(ccn4CC(=O)O)c3)no2)cc1C` [Compound 18, {5-[5-(2,2′-dimethylbiphenyl-4-yl)-1,2,4-oxadiazol-3-yl]-1H-indol-1-yl}acetic acid], the midpoint of the response at S1P1 [1], the EC50, lay at 3030 nM. Against the preceding compound, the EC50 is about 2.3-fold higher.

As to `CC1CCCCN1c1ccc(-c2nc(-c3ccc4c(ccn4C)c3)no2)cc1[N+](=O)[O-]` (centres unmarked) [Compound 19, 1-methyl-5-{5-[4-(2-methylpiperidin-1-yl)-3-nitrophenyl]-1,2,4-oxadiazol-3-yl}-1H-indole], at S1P1 [1], the EC50 was determined as 1270 nM.

In the case of `COc1cc2[nH]c(C(=O)O)cc2cc1-c1noc(-c2ccc(N3CCCCC3C)c(C(F)(F)F)c2)n1` (centres unmarked) [Compound 21, 6-methoxy-5-{5-[4-(2-methylpiperidin-1-yl)-3-(trifluoromethyl)phenyl]-1,2,4-oxadiazol-3-yl}-1H-indole-2-carboxylic acid], on S1P1 [1], the EC50 was found to be 468 nM.

As to `CC1CCCCN1c1ccc(-c2nc(-c3ccc4[nH]ccc4c3)no2)cc1C#N` (centres unmarked) [Compound 23, 5-[3-(1H-indol-5-yl)-1,2,4-oxadiazol-5-yl]-2-(2-methylpiperidin-1-yl)benzonitrile], on S1P1 [1], the EC50 was determined as 42 nM.

In the case of `COCc1cc(-c2nc(-c3cc(C)c4[nH]cnc4c3)no2)ccc1-c1ccccc1C` [Compound 26, 5-{5-[2-(methoxymethyl)-2′-methylbiphenyl-4-yl]-1,2,4-oxadiazol-3-yl}-7-methyl-1H-benzimidazole], the EC50 on S1P1 [1] was 38.1 nM. This EC50 and that of the compound before are within 1.5-fold of each other.

In turn, `C[C@@H]1CCCCN1c1ccc(-c2nc(-c3ccc4[nH]cnc4c3)no2)cc1C(F)(F)F` [Compound 28, 5-{5-[4-[(2R)-2-methylpiperidin-1-yl]-3-(trifluoromethyl)phenyl]-1,2,4-oxadiazol-3-yl}-1H-benzimidazole] came in with a concentration for a half-maximal effect (EC50) on S1P1 [1] of 23 nM.

In the case of `C[C@H]1CCCCN1c1ccc(-c2nc(-c3ccc4[nH]cnc4c3)no2)cc1C(F)(F)F` [Compound 29, 5-{5-[4-[(2S)-2-methylpiperidin-1-yl]-3-(trifluoromethyl)phenyl]-1,2,4-oxadiazol-3-yl}-1H-benzimidazole], the EC50 at S1P1 [1] came to 3 nM. This EC50 lies about 7.7-fold lower than the previous one.

At S1P1 [1], `CCc1ccccc1-c1ccc(-c2nc(-c3ccc4c(c3)CN(CC(=O)O)CC4)no2)cc1COC` [Compound 30, [7-{5-[2′-ethyl-2-(methoxymethyl)biphenyl-4-yl]-1,2,4-oxadiazol-3-yl}-3,4-dihydroisoquinolin-2(1H)-yl]acetic acid] showed a half-maximal effective concentration (EC50) of 4.39 nM.

Take `CCc1ccccc1-c1ccc(-c2nc(-c3ccc4c(c3)CN(CCC(=O)O)CC4)no2)cc1COC` [Compound 31, 3-[7-{5-[2′-ethyl-2-(methoxymethyl)biphenyl-4-yl]-1,2,4-oxadiazol-3-yl}-3,4-dihydroisoquinolin-2(1H)-yl]propanoic acid]: the EC50 on S1P1 [1] was 2.52 nM.

For `COCc1cc(-c2nc(-c3ccc4cc(C(=O)O)[nH]c4c3)no2)ccc1-c1ccccc1C` [Compound 32, 6-{5-[2-(methoxymethyl)-2′-methylbiphenyl-4-yl]-1,2,4-oxadiazol-3-yl}-1H-indole-2-carboxylic acid], the EC50 on S1P1 [1] was 30.8 nM.

At S1P1 [1], `CCC1CCCCN1c1ccc(-c2nc(-c3ccc4c(c3)CN(CCC(=O)O)CC4)no2)cc1COC` (centres unmarked) [Compound 33, 3-[7-{5-[4-(2-ethylpiperidin-1-yl)-3-(methoxymethyl)phenyl]-1,2,4-oxadiazol-3-yl}-3,4-dihydroisoquinolin-2(1H)-yl]propanoic acid] showed an EC50 of 0.89 nM.

As to `CCC1CCCCN1c1ccc(-c2nc(-c3ccc4c(c3)CN(CC(=O)O)CC4)no2)cc1COC` (centres unmarked) [Compound 34, [7-{5-[4-(2-ethylpiperidin-1-yl)-3-(methoxymethyl)phenyl]-1,2,4-oxadiazol-3-yl}-3,4-dihydroisoquinolin-2(1H)-yl]acetic acid], the EC50 on S1P1 [1] is 1.93 nM.

As usually defined, the Ki is a measure of affinity in units of concentration, obtained from inhibition or displacement. On S1P1 [2], `COCc1cc(-c2nc(-c3ccc4c(c3)CN(CCC(=O)O)CC4)no2)ccc1-c1ccccc1C` [Compound 35, 3-[7-{5-[2-(methoxymethyl)-2′-methylbiphenyl-4-yl]-1,2,4-oxadiazol-3-yl}-3,4-dihydroisoquinolin-2(1H)-yl]propanoic acid] yielded a Ki of 0.23 nM.

As for `Cc1ccccc1-c1ccc(-c2nc(-c3ccc4c(c3)CN(CC(=O)O)CC4)no2)cc1C(F)(F)F` [Compound 36, [7-{5-[2′-methyl-2-(trifluoromethyl)biphenyl-4-yl]-1,2,4-oxadiazol-3-yl}-3,4-dihydroisoquinolin-2(1H)-yl]acetic acid], on S1P1 [2], the inhibition constant Ki came to 0.49 nM.

For the compound `CC1CCCCN1c1ccc(-c2nc(-c3ccc4c(c3)CN(CCC(=O)O)CC4)no2)cc1C(F)(F)F` (centres unmarked) [Compound 37, 3-[7-{5-[4-(2-methylpiperidin-1-yl)-3-(trifluoromethyl)phenyl]-1,2,4-oxadiazol-3-yl}-3,4-dihydroisoquinolin-2(1H)-yl]propanoic acid], the Ki at S1P1 [2] amounted to 0.75 nM.

For `CC1CCCCN1c1ccc(-c2nc(-c3ccc4c(c3)CN(CC(=O)O)CC4)no2)cc1C(F)(F)F` (centres unmarked) [Compound 38, [7-{5-[4-(2-methylpiperidin-1-yl)-3-(trifluoromethyl)phenyl]-1,2,4-oxadiazol-3-yl}-3,4-dihydroisoquinolin-2(1H)-yl]acetic acid], the Ki on S1P1 [2] is 0.8 nM.

Turning to `Cc1ccccc1-c1ccc(-c2nc(-c3ccc4c(c3)CN(CCC(=O)O)CC4)no2)cc1C(F)(F)F` [Compound 39, 3-[7-{5-[2′-methyl-2-(trifluoromethyl)biphenyl-4-yl]-1,2,4-oxadiazol-3-yl}-3,4-dihydroisoquinolin-2(1H)-yl]propanoic acid], the Ki at S1P1 [2] is 0.6 nM. This Ki and that of the compound before are within 1.5-fold of each other.

In the case of `COCc1cc(-c2nc(-c3ccc4c(c3)CCN(CCC(=O)O)C4)no2)ccc1-c1ccccc1C` [Compound 40, 3-{6-[5-(2-Methoxymethyl-2′-methyl-biphenyl-4-yl)-[1,2,4]oxadiazol-3-yl]-3,4-dihydro-1H-isoquinolin-2-yl}-propionic acid], the Ki on S1P1 [2] came to 1.1 nM.
